SMILES strings stand for the structures.

The first assay concerns the target T1, human estrogen receptor (Homo sapiens, UniProt P03372).
T1 sequence (P03372 1-595): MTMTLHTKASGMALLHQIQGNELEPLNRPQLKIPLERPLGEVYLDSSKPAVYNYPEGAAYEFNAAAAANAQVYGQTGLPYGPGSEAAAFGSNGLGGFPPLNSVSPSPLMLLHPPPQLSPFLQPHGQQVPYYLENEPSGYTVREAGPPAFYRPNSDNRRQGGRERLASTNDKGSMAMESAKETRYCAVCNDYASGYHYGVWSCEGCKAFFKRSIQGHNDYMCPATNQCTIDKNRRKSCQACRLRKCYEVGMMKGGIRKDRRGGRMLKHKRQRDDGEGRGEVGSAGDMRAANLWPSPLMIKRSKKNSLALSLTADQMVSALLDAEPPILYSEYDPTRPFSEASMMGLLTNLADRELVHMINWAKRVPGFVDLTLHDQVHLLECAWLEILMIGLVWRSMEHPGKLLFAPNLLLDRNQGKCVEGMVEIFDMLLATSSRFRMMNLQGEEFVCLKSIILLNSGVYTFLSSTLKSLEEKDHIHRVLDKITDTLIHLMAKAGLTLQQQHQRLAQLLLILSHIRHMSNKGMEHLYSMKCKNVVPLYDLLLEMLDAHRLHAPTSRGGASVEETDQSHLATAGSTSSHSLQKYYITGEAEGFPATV
The experiment in a line: in vitro assay of estrogenic activity correlated to the MCF-7 assay. The class given is cell-based. The following applies: suitable in vitro assay correlated to MCF-7 assay; assay not named for hydroquinone.
Take `CC(C)(C)c1cc(O)c(C(C)(C)C)cc1O`: the estrogenic activity entry was “does not exhibit appreciable estrogenic activity”.
For `Oc1ccc(O)cc1` [hydroquinone], the estrogenic activity result was “appreciably non-estrogenic”.

The subject of another assay is MCF-7, clone WS8, cells. Briefly: MCF-7 cell proliferation assay of estrogenic activity. The class given is cell-based, human. The following applies: logarithmic (base 10) Relative Proliferative Effect vs 17-beta estradiol in the MCF-7 assay; values called expected or measured. An excerpt:
The MCF-7 assay uses MCF-7, clone WS8, cells to measure whether and to what extent a substance induces cell proliferation via estrogen receptor (ER)-mediated pathways. The method is described in “Test Method Nomination: MCF-7 Cell Proliferation Assay of Estrogenic Activity” submitted for validation by CertiChem, Inc. to the National Toxicology Program Interagency Center for the Evaluation of Alternative Toxicological Methods (NICEATM) on Jan. 19, 2006 (available online at http://iccvam.niehs.nih.gov/methods/endocrine/endodocs/SubmDoc.pdf).
A brief summary of the method of the aforementioned MCF-7 assay is provided below. MCF-7, clone WS8, cells are maintained at 37° C. in RMPI (Roswell Park Memorial Institute medium) containing Phenol Red (e.g., GIBCO Catalog Number 11875119) and supplemented with the indicated additives for routine culture. An aliquot of cells maintained at 37° C. are grown for 2 days in phenol-free media containing 5% charcoal stripped fetal bovine serum in a 25 cm^2 tissue culture flask. Using a robotic dispenser such as an epMotion 5070 unit, MCF-7 cells are then seeded at 400 cells per well in 0.2 ml of hormone-free culture medium in Corning 96-well plates. The cells are adapted for 3 days in the hormone-free culture medium prior to adding the test chemical to be assayed for activity. The media containing the test chemical is replaced daily for 6 days. At the end of the 7-day exposure to the test chemical, the media is removed, the wells are washed once with 0.2 ml of HBSS (Hanks' Balanced Salt Solution), and then assayed to quantify amounts of DNA per well using a micro-plate modification of the Burton diphenylamine (DPA) assay, which is used to calculate the level of cell proliferation.
RPE is the ratio between the EC50 of the test chemical and the EC50 of the control substance 17-beta estradiol times 100, where EC50 is “effective concentration 50^0/” or half-maximum stimulation concentration for cell proliferation measured as total DNA in the MCF-7 assay.
For the compound `CC(C(=O)O)(c1ccc(O)cc1)c1ccc(O)cc1`, the “Log RPE” value is recorded as “less than −4”.
Consider `CC(C)(C)c1cc(O)c(C(C)(C)C)cc1O`, for which the “Log RPE” value is “less than −4”.
On to `CC(C)(c1cc(Br)c(O)c(Br)c1)c1cc(Br)c(O)c(Br)c1`, for which the “Log RPE” value is recorded as −3.
`C[C@]12CC[C@@H]3c4ccc(O)cc4CC[C@H]3[C@@H]1CC[C@@H]2O` [17β-estradiol]: the “Log RPE” value turned out to be 2.00.
Consider `O=S(=O)(c1ccc(O)cc1)c1ccc(O)cc1` [Bisphenol S], for which the “Log RPE” value is on record as −2.
